Measurements taken from patent publication US10508285B2, “Method for screening of genes conferring increased tolerance to herbicides” (priority 2014, dated 2019).

Test system: Protoporphyrinogen IX Oxidase (PPO) R128L
Type: cell-based, Amaranthus tuberculatus

Compound	Tolerance factor
CC(C)N(C)S(=O)(=O)NC(=O)c1cc(-n2c(=O)cc(C(F)(F)F)n(C)c2=O)c(F)cc1Cl [Saflufenacil]	170
C#CCN1C(=O)C(F)(F)Oc2cc(F)c(-n3c(=O)n(C)c(=S)n(C)c3=O)cc21 [BAS 850H]	28.7
